We go through three compounds from ChEMBL document CHEMBL4346735, “Discovery and pharmacological evaluation of indole derivatives as potent and selective RORγt inverse agonist for multiple autoimmune conditions” (Bioorg Med Chem Lett, 2019).

Some results are limits rather than exact numbers.

Series [1] deals with Mus musculus. The series can be described thus: Inhibition of anti-CD3-induced IL-17A level in Balb/c mouse plasma at 5 mg/kg, po treated prior to stimulation with anti-CD3 for 3 hrs relative to control. The series is classed as functional.
Series [2] deals with Mus musculus. The series can be described thus: Immunosuppressive activity in MOG (35 to 55 residues)/pertussis toxin-induced experimental allergic encephalomyelitis C57BL/6J mouse model assessed as reduction in disease severity score at 15 mg/kg, po bid measured at day 23 relative to dexamethasone. It is filed as functional. The conditions noted are these: 552 h.
A short description of series [3]: Drug metabolism in human pooled liver microsomes assessed as oxidation metabolic rate at 1 uM preincubated for 5 mins followed by NADPH addition after 30 mins by LC-MS/MS analysis. The series is classed as ADME, Microsome. Particulars: 0.5 h. In general terms: Microsomes from liver hold many membrane-bound enzymes, among them those of drug oxidation.
The nature of series [4]: Drug metabolism in mouse liver microsomes assessed as oxidation metabolic rate at 1 uM preincubated for 5 mins followed by NADPH addition after 30 mins by LC-MS/MS analysis. It is filed as ADME, Microsome. The conditions noted are these: 0.5 h.
Series [5] can be described thus: AUC (0 to t) in Balb/c mouse at 3 mg/kg, iv administered as single dose by LC-MS/MS analysis. The conditions noted are these: in vivo. The series is classed as ADME, organism-based.
The nature of series [6]: Oral bioavailability in Balb/c mouse at 10 mg/kg administered via gavage by LC-MS/MS analysis. The conditions noted are these: in vivo. It is filed as ADME, organism-based.
Series [7] addresses T1, Nuclear receptor ROR-gamma (Homo sapiens, UniProt P51449).
T1 sequence (P51449 whole entry): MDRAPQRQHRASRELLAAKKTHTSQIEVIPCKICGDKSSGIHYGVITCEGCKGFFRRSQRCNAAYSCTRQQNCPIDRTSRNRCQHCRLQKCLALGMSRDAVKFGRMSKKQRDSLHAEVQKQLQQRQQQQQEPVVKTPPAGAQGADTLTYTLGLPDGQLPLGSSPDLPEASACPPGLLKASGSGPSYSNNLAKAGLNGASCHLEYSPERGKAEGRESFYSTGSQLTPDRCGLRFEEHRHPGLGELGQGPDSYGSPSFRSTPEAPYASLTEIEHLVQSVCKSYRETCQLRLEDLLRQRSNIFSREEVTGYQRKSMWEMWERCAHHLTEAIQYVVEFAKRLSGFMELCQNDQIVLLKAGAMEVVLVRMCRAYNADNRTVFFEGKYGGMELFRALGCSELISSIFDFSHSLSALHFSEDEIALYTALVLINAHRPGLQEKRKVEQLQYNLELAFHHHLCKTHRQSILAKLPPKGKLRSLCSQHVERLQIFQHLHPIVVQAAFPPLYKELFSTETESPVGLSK
The series can be described thus: Transactivation of recombinant GAL4-DBD fused RORgammat LBD (unknown origin) expressed in HEK293T cells incubated for 18 to 24 hrs by dual-Glo luciferase assay. It is filed as cell-based.

The nature of series [8]: Half life in Balb/c mouse at 3 mg/kg, iv administered as single dose by LC-MS/MS analysis. It is filed as ADME, organism-based. The conditions noted are these: in vivo.
Series [9] can be described thus: Drug metabolism in rat liver microsomes assessed as oxidation metabolic rate at 1 uM preincubated for 5 mins followed by NADPH addition after 30 mins by LC-MS/MS analysis. It is filed as ADME, Microsome. Particulars: 0.5 h.
Series [10] can be described thus: Metabolic stability in rat hepatocytes assessed as parent compound remaining after 30 mins. It is filed as ADME, cell-based, Hepatocyte. Particulars: read-out: Stability.
A short description of series [11]: Clearance in Balb/c mouse at 3 mg/kg, iv administered as single dose by LC-MS/MS analysis. The series is classed as ADME, organism-based. Particulars: in vivo.
In series [12] the target is T1, Nuclear receptor ROR-gamma. The series can be described thus: Inverse agonist activity at GST-tagged RORgammat LBD (unknown origin) using fluorescein-D22 co-activator peptide as substrate incubated for 1 hr by TR-FRET assay. (In TR-FRET formats the signal depends on donor and acceptor labels being close together.)

As a reminder, the inhibition in vivo is how much of the control response was suppressed. In the series with Mus musculus [1], `C[C@@H]1C[C@H]2[C@@H]3CCC4=CC(=O)C=C[C@]4(C)[C@@]3(F)[C@@H](O)C[C@]2(C)[C@@]1(O)C(=O)CO` [DEXAMETHASONE] showed an inhibition in vivo at 5 mg/kg of 51%.
Consider `C[S+](C)[O-]` [DIMETHYL SULFOXIDE], for which the inhibition in vivo at 15 mg/kg with Mus musculus [2] was 15%.
A word on the AUC(0-t): it is exposure summed from dosing to a finite time, without extrapolation to infinity. A low value points to low exposure. What is called bioavailability is the share of a dose that reaches the circulation, judged against a reference dose that is usually intravenous. A lower bioavailability goes with poor availability. As usually defined, the IC50 is the point on the concentration scale where inhibition reaches its midpoint. Usually half-life stands for the time needed for the level to fall by half in the phase considered. A low value points to fast loss. Broadly, the clearance is a measure of how efficiently the substance is removed, as volume per time. Higher therefore signals a high capacity for elimination. In the case of `O=C(O)c1ccc(-n2nc(C(=O)c3c(Cl)cccc3Cl)c3ccccc32)cc1`, the figures for the Drug metabolism in series [3], in series [4] and in series [9] were 0.07 nmol/min/mg, less than 0.04 nmol/min/mg and 0.18 nmol/min/mg, respectively. In series [5], this compound returned an AUC(0-t) of 5.9 µM·h. Further, the bioavailability in series [6] came to 29%. The IC50 in series [7] was found to be 29 nM; in series [12], 3.8 nM. In addition, in series [8], the half-life is 1.4 h. Also, the remaining at 0.5 h in series [10] came out at 17%. In addition, the clearance in series [11] was 19.6 mL/min/kg.
